# Measurements reported in US9957214B2, “Multifunctional radical quenchers” (ARIZONA BOARD OF REGENTS ON BEHALF OF ARIZONA STATE …, priority 2012, dated 2018).
# Columns and labels:
# [1] = tested on: differentiated SH-SY5Y cells; assay: Neuroprotection against Aβ 1-42 oligomer induced cytotoxicity (WST-1); type: cell-based, human; settings: Aβ 1-42 oligomers 2.5 μM, 48 h
# Description: FIG. 8. Effect of nitrogen-containing 1,4-benzoquinone 40 and geldanamycin on Aβ 1-42 induced neurotoxicity in differentiated SH-SY5Y cells.
# The cytotoxic effect of Aβ 1-42 oligomers (2.5 μM) on differentiated SH-SY5Y cells was evaluated in presence and absence of the test compounds. Sequential treatment of the human SH-SY5Y neuroblastoma cell line with retinoic acid and brain-derived neurotrophic factor (BDNF) generates nearly pure populations of human neuron-like cells, thus providing a model for the study of neuronal differentiation and neuroprotection as previously described, with some modifications (Encinas et al. (2000) J. Neurochem. 75, 991-1003). […] The plates were incubated at 37° C. in an atmosphere having 95% humidity and 5% CO2 for 48 h and then cell viability was measured using a WST-1 Kit (Roche Diagnostics). […] Color intensity was measured with a 96-well plate at 450 nm using a SpectraMax M5 microplate reader (Molecular Devices, Sunnyvale, Calif.). Results are expressed as percentage of viable cells relative to untreated control after subtracting background. Data are expressed as means±S.E.M. (n=3).
# Synthetic human Aβ 1-42 was purchased from AnaSpec (San Jose, Calif.). […] Aβ 1-42 peptide content was determined by the method of bicinchoninic acid assay (micro-BCA kit, Pierce) using BSA as reference.
# [2] = tested on: BT474 cell line and FRDA lymphocytes; assay: Cytotoxicity assay (WST-1); type: cell-based, human; settings: 48 h, varying concentrations
# Description: FIG. 5. Effect of compound 40 and geldanamycin on cell viability was compared to vehicle (DMSO) after treatment with varying concentrations for 48 h in BT474 cell line and FRDA lymphocytes, respectively. Each measurement is an average of three independent experiments run in quartet.
# […] geldanamycin were tested for their cytotoxicity in human breast cancer cell line BT474 and FRDA lymphocytes using the vital mitochondrial function assay WST-1 Kit (Roche Diagnostics). BT474 cells (2000 cell/well) and FRDA lymphocytes (5000 cell/well) (100 μl) were seeded in 96-well plates and incubated for 48 h. Compound 40 or geldanamycin at varying concentrations were added and the plates were returned to the incubator for 48 h. Cell viability was determined using a WST-1 Kit (Roche Diagnostics) following the manufacturer's instructions. WST-1 reagent (10 μL) was added to each well, containing 200 μL media and further incubation for 2 h (BT474) and 4 h (FRDA lymphocytes). Color intensity was measured at 450 nm using a SpectraMax M5 microplate reader (Molecular Devices, Sunnyvale, Calif., USA). Results are expressed as percentage of viable cells relative to untreated control after subtracting background. Data are expressed as means±S.E.M. (n=3).
smiles,measurement,setting,value
COC1=C2CCCCCCCCCCCCCCCNC(=CC1=O)C2=O [Compound 40],Effect on Aβ 1-42 induced cytotoxicity (in words),[1],decreased Aβ 1-42 induced cytotoxicity in a concentration dependent manner
same,Cytotoxicity (in words),[2],no cytotoxicity
